This is an account of results in BindingDB's records for doi:10.7270/Q2SJ1J08 (University of Pittsburgh, 2007).

Molecules are shown by their SMILES. pIC50: −log10 of the molar value.

The assay deals with T1, M-phase inducer phosphatase 2 (Homo sapiens, UniProt P30305).
T1 sequence (P30305 whole entry): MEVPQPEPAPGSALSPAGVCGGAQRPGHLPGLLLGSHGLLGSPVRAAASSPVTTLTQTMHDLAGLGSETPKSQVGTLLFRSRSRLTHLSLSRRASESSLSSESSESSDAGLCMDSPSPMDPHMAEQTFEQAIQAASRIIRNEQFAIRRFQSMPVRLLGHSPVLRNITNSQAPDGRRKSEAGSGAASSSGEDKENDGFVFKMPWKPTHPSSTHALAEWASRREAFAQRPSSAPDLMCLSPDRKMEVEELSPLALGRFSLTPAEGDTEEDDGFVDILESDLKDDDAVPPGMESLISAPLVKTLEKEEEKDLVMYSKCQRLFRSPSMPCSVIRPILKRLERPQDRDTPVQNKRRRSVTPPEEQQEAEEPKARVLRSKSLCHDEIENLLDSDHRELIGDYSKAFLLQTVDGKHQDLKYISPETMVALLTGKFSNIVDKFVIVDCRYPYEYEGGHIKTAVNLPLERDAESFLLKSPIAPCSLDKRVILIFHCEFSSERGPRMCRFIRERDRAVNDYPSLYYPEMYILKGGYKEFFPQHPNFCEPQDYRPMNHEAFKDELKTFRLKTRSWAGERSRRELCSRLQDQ
Nature of the assay: Cdc25B catalytic domain inhibitors, dose response, biochemical, 25 mM DTT, catalase, probe assessment (AID 669).
In general, pIC50 refers to the negative decadic logarithm of the IC50, by convention in mol/L. Low readings indicate a large IC50, high ones a small IC50. `O=C(Nc1ccc2nc(-c3ccco3)c(-c3ccco3)nc2c1)N1CCCCCC1` gave a pIC50 of 4.39.
Compound `Cc1ccc2c(c1C)NC(C(=O)O)C1CC=CC21` (stereo not drawn) had a pIC50 of 4.69.
The compound `O=C(O)C1Nc2c(O)cccc2C2C=CCC12` (stereo not drawn) had a pIC50 of 4.80.
With `Cn1ncnc2c(=O)n(C)c(=O)nc1-2`, the negative-log IC50 (pIC50) is less than 4.30.
In the case of `[O-]/[N+](=C\c1ccncc1)c1ccccc1` it was less than 4.30; in that of `COc1cccc2c(C)c(C(=O)O)[nH]c12`, 4.94.
`O=C1C=Cc2ccccc2C1=O` [1,2-dihydronaphthalene-1,2-dione] had a pIC50 of less than 4.30.
In the case of `CCn1nc(-c2ccccc2)nc2c(=O)n(C)c(=O)nc1-2` [1-Ethyl-6-methyl-3-phenyl-1H-pyrimido[5,4-e][1,2,4]triazine-5,7-dione], the pIC50 was less than 4.30.
With `[O-]/[N+](=C\c1ccc(OC(F)F)cc1)c1ccccc1` [1-[4-(difluoromethoxy)phenyl]-N-phenylmethanimine oxide] the figure was less than 4.30.
Regarding `CCn1nc(-c2cccs2)nc2c(=O)n(C)c(=O)nc1-2` [1-ethyl-6-methyl-3-thiophen-2-yl-pyrimido[5,4-e][1,2,4]triazine-5,7-dione], the pIC50 is less than 4.30.
`O=C1Cc2ccccc2C(=O)N1CCc1ccccc1` [2-(2-phenylethyl)-4H-isoquinoline-1,3-dione] had a pIC50 of less than 4.30.
Regarding `N#Cc1c(N)sc(=S)c2c1CCN(Cc1ccccc1)C2` [3-Amino-7-benzyl-1-thioxo-5,6,7,8-tetrahydro-1H-thiopyrano[3,4-c]pyridine-4-carbonitrile], the pIC50 was less than 4.30.
In the case of `Cc1ccccc1Nc1cc2ccccc2c(O)n1` [3-[(2-methylphenyl)amino]-2H-isoquinolin-1-one], the pIC50 was less than 4.30.
In turn, `COc1ccc(Br)cc1C=c1sc2nc(-c3ccco3)nn2c1=O` [5-[(5-bromanyl-2-methoxy-phenyl)methylidene]-2-(furan-2-yl)-[1,3]thiazolo[3,2-b][1,2,4]triazol-6-one] gave a pIC50 of 4.78.
In the case of `CC(=O)Nc1cc(OC(C)=O)c2nonc2c1OC(C)=O` [Acetic acid 7-acetoxy-5-acetylamino-benzo[1,2,5]oxadiazol-4-yl ester] it was less than 4.30; in that of `CCOC(=O)C(C(=O)OCC)c1cc(Br)c2noc3c2c1C(=O)c1ccccc1-3` [MLS000038842], less than 4.30.
The compound `Oc1nc(Nc2ccccc2)cc2ccccc12` [MLS000043701] showed a pIC50 of less than 4.30.
In the case of `O=C1C=Cc2ccccc2/C1=C/NC12CN3CCN(CN(C3)C1)C2` [MLS000071484] it was less than 4.30.
On to `Cc1c(N=c2c(=O)c3ccccc3c2=O)c(=O)n(-c2ccccc2)n1C` [MLS000105950], for which the pIC50 was less than 4.30.
As for `CCOc1ccc2noc3c2c1C(=O)c1ccccc1-3` [MLS000106837], the pIC50 is less than 4.30.
Regarding `COc1ccc2noc3c2c1C(=O)c1ccccc1-3` [MLS000106874], the pIC50 was less than 4.30.
In turn, `c1ccc(CSc2nnc(-c3ccco3)c(-c3ccco3)n2)cc1` [MLS-0029114.0001] gave a pIC50 of less than 4.30.
Regarding `Cc1ccc2c(c1)C1C=CCC1C(C(=O)O)N2` (stereo not drawn) [MLS-0067149.0001], the pIC50 is 4.92.
The compound `O=C(NC1(O)C(=O)c2ccccc2C1=O)c1ccccc1` [N-(2-hydroxy-1,3-dioxo-2-indenyl)benzamide] gave a pIC50 of less than 4.30.
In the case of `COc1cccc2c1NC(C(=O)O)C1CC=CC21` (stereo not drawn) [SMR000009698] it was 4.88.
With `O=C(OC1CCCCC1)c1ccc2c(c1)C1C=CCC1C(C(=O)O)N2` (stereo not drawn) [SMR000019385] the figure was 5.06; with `N#Cc1c(N2CCCC2)nc(N)c2c(N)nc(N3CCCC3)cc12` [SMR000061605], less than 4.30; with `Nc1cccc2cnccc12` [isoquinolin-5-amine], less than 4.30.
